Where two headings read alike, the source gives them in different places.
Tests used:
[1] = biological target: T1, rat-DOR (Rattus norvegicus, UniProt P33533); parameters: method as in PMID 27234885; conditions: read-out: Ki (μM) ± SEM DOR; [3H]-DPN displacement; cited from earlier work
T1 construct: expressed in transfected cells

[2] = biological target: T2, rat-MOR (Rattus norvegicus, UniProt P33535); parameters: method as in PMID 27234885; conditions: read-out: Ki (μM) ± SEM MOR; [3H]-DPN displacement; cited from earlier work
T2 construct: expressed in transfected cells

[3] = biological target: T3, human-KOR (Homo sapiens, UniProt P41145); parameters: expressed in transfected cells; method as in PMID 27234885; conditions: read-out: Ki (μM) ± SEM KOR; [3H]-DPN displacement; cited from earlier work
[4] = biological target: T4, recombinant human DOR (Homo sapiens, UniProt P41143); assay: Calcium mobilization assay, CHO-DOR cells expressing GαqG66Di5; assay type: cell-based; conditions: for DOR pEC50 (CL95%): agonist mode, crc incomplete = incomplete concentration response curve at 10 μM
T4 construct: expressed in transfected cells; supplied by Dr. Eva Varga (University of Arizona); infected with a retrovirus for GαqG66Di5
Description: (§1) The pharmacological characterization of LP1 derivatives 2 and 10–16 was performed by calcium mobilization assay (Table 2). This procedure was preliminarily validated through a series of experiments where the effects of DPDPE, dermorphin, and dynorphin A were assessed in CHO cells expressing the human recombinant opioid receptors and Gαqi5 or GαqG66Di5 chimeric proteins.
(§2) Chinese hamster ovary (CHO) cells expressing the recombinant human MOR and KOR (CHO^MOR and CHO^KOR) were kindly provided by Dr. Larry Toll (SRI International, Menlo Park, CA, USA), and CHO cells expressing the recombinant human DOR (CHO^DOR) were supplied by Dr. Eva Varga (Department of Medical Pharmacology, The University of Arizona, Tucson, AZ, USA). CHO cells lines permanently coexpressing the opioid receptors and the C-terminally modified Gαqi5 were prepared by infecting the CHO lines described above with a recombinant retrovirus expressing the chimeric α subunit and the hygromycin resistance gene. Similarly, CHO cells lines permanently coexpressing DOR and the C-terminally modified GαqG66Di5 were prepared by infecting the CHO lines described above with a recombinant retrovirus expressing the chimeric α subunit and the hygromycin resistance gene. Polyclonal cell lines were generated using the pantropic retroviral expression system form BD-Clontech, as described previously. Stable lines were selected under hygromycin B (100 μg/mL) and geneticin (600 μg/mL) for 2–3 weeks after the infection.
(§3) CHO cells, expressing human opioid receptors and the Gαqi5 protein, and CHODOR, expressing the GαqG66Di5 protein, were maintained in culture medium consisting of Dulbecco minimum essential medium (DMEM) and Ham F-12 (1:1) (50/50) supplemented with 10% fetal calf serum (FCS), L-glutamine (2 mM), geneticin (200 μg/mL; G418), hygromycin B (100 μg/mL) at 37 °C in 5% CO2 humidified air. When confluence was reached (3–4 days), cells were subcultured as required using trypsin/EDTA, and used for experimentation. The different cell lines were seeded at a density of […] into black 96-well, clear-bottomed plates. After 24 h incubation, the cells were loaded with medium supplemented with 2.5 mM probenecid, 3 μM of the calcium sensitive fluorescent dye Fluo-4 AM, and 0.01% pluronic acid, for 30 min at 37 °C. Afterwards, the loading solution was aspirated and 100 μL/well of assay buffer—HBSS supplemented with 20 mM HEPES, 2.5 mM probenecid and 500 μM Brilliant Black (Aldrich, St. Louis, MO, USA)—was added. Serial dilutions of ligands for experimental use were made in HBSS/HEPES (20 mM) buffer (containing 0.005% BSA fraction V). After placing both plates (cell culture and compound plate) into the FlexStation II (Molecular Device, Union City, San Jose, CA 94587, USA), fluorescence changes were measured at room temperature. Online additions were carried out in a volume of 50 μL/well. Antagonists were incubated 15 min before the addition of the agonist. Maximum change in fluorescence, expressed in percent of baseline fluorescence, was used to determine agonist response.
(§4) Analysis of the binding data was performed using the Origin 7.5 software (OriginLab Corporation, Northampton, MA, USA). In calcium mobilization experiments, data were analyzed by non-linear curve fitting equation, using GraphPad 5.0 software. […] Ligand efficacy was expressed as intrinsic activity (α), calculated as the ratio between the Emax of the ligand and that of the respective standards. Calcium mobilization data were expressed as FIU (fluorescence intensity units) in percent, over the baseline. Agonist potencies are given as pEC50 (the negative logarithm to base 10 of the molar concentration of an agonist that produces 50% of the maximal possible effect, Emax). Concentration response curves to agonists were fitted with the following equation: Effect = baseline + (Emax − baseline)/(1+10^(LogEC50 − X) ∗ HillSlope) where X is the agonist concentration. […]

[5] = biological target: T3, human-KOR; assay: Calcium mobilization assay, CHO-KOR cells expressing Gαqi5; assay type: cell-based; parameters: expressed in transfected cells; gift of Dr. Larry Toll (SRI International); infected with a retrovirus for Gαqi5; conditions: for KOR pEC50 (CL95%): agonist mode, crc incomplete = incomplete concentration response curve at 10 μM
Description: as §1, §2, §3, §4

[6] = biological target: T5, recombinant human MOR (Homo sapiens, UniProt P35372); assay: Calcium mobilization assay, CHO-MOR cells expressing Gαqi5; assay type: cell-based; conditions: for MOR pEC50 (CL95%): agonist mode, crc incomplete = incomplete concentration response curve at 10 μM
T5 construct: expressed in transfected cells; gift of Dr. Larry Toll (SRI International); infected with a retrovirus for Gαqi5

[7] = biological target: T2, rat-MOR; assay: Radioligand competition binding, [3H]-DPN, HEK293 membranes, MOR; conditions: [3H]-DPN displacement; means ± SEM of three experiments in duplicate; read-out: Ki (μM) ± SEM MOR
Description: (§5) All synthesized compounds were tested in vitro by radioligand competition binding using [^3H]-diprenorphine ([^3H]-DPN) to measure the affinity for opioid receptor subtypes in membranes from HEK293 cells stably expressing either MOR, DOR, or KOR, as previously described.
(§6) Confluent monolayers of HEK293 (human embryonic kidney 293) cells stably expressing rat-MOR, rat-DOR, or human-KOR were harvested, collected by centrifugation at 1500 rpm for 5 min, and washed once with phosphate-buffered saline (PBS) at pH 7.5. Membranes from cell pellets were carried out as described by Georgoussi and Zioudrou (1993) and Papakonstantinou et al. (2015). Briefly, cell pellets were resuspended in ice-cold membrane buffer (10 mM Tris-HCl, pH 7.5 and 0.1 mM EDTA), homogenized, and centrifuged at 2,000 g for 3 min at 4 °C. Supernatants were further centrifuged at 45,000 rpm for 30 min at 4 °C. The membrane pellet was resuspended in ice-cold membrane buffer at a protein concentration of approximately 1 mg/mL and stored in aliquots at −70 °C. Protein concentration was determined according to Bradford assay.
(§7) In the experiments designed to define compound affinity and selectivity for MOR, DOR, and KOR, membranes expressing each of these opioid receptors ([…]) were incubated at 30 °C for 45 min in buffer containing 50 mM Tris-HCl, pH 7.5, 100 mM NaCl, and 10 mM MgCl2 as described by Georgoussi et al. […] The ability of compounds 10–16 to displace [^3H]-DPN (3.75 nM) binding to the opioid receptors was assessed as described by Morou And Georgoussi (2005). Non-specific binding was measured in the presence of […] Naloxone. The reaction was stopped by rapid filtration and three washes in ice-cold 50 mM Tris-HCl, pH 7.4, through GF/C filters (Whatman, Maidstone, UK) using an automated cell harvester (Brandel Inc., Gaithersburg, MD, USA). The radioactivity was measured by liquid scintillation counting (Liquid Scintillation Analyzer, Packard).
(§8) Analysis of the binding data was performed using the Origin 7.5 software (OriginLab Corporation, Northampton, MA, USA). In calcium mobilization experiments, data were analyzed by non-linear curve fitting equation, using GraphPad 5.0 software. […] Ligand efficacy was expressed as intrinsic activity (α), calculated as the ratio between the Emax of the ligand and that of the respective standards. Calcium mobilization data were expressed as FIU (fluorescence intensity units) in percent, over the baseline. Agonist potencies are given as pEC50 (the negative logarithm to base 10 of the molar concentration of an agonist that produces 50% of the maximal possible effect, Emax). Concentration response curves to agonists were fitted with the following equation: Effect = baseline + (Emax − baseline)/(1+10^(LogEC50 − X) ∗ HillSlope) where X is the agonist concentration.

[8] = biological target: T3, human-KOR; assay: Radioligand competition binding, [3H]-DPN, HEK293 membranes, KOR; parameters: expressed in transfected cells; conditions: [3H]-DPN displacement; means ± SEM of three experiments in duplicate; read-out: Ki (μM) ± SEM KOR
Description: as §5, §6, §7, §8

[9] = biological target: T1, rat-DOR; assay: Radioligand competition binding, [3H]-DPN, HEK293 membranes, DOR; conditions: [3H]-DPN displacement; means ± SEM of three experiments in duplicate; read-out: Ki (μM) ± SEM DOR
Description: as §5, §6, §7, §8

SMILES | Ki [1] | Ki [2] | Ki [3] | Kb [4] | DOR pEC50 (CL95%) ([4]; Inactive = inactive at 10 μM) | Kb [5] | KOR pEC50 (CL95%) ([5]; Inactive = inactive at 10 μM) | Kb [6] | MOR pEC50 (CL95%) ([6]; Inactive = inactive at 10 μM) | Ki [7] | melting point | Ki [8] | DOR pKB (CL95%) ([4]; antagonist mode, DPDPE as agonist, Inactive = inactive at 10 μM) | KOR pKB (CL95%) ([5]; antagonist mode, dynorphin A as agonist, Inactive = inactive at 10 μM) | Kb ([6]; antagonist mode, dermorphin as agonist, Inactive = inactive at 10 μM, read-out: MOR pKB (CL95%) (converted)) | Ki [9]
CC1C2Cc3ccc(O)cc3C1(C)CCN2CCC(=O)Nc1cccc2ccccc12 (stereo not shown) [Compound 2] | 0.21 ± 0.03 µM | 0.038 ± 0.004 µM | 0.8 ± 0.016 µM | 166 nM | Inactive | 1380 nM | Inactive | 12.6 nM | Inactive ^e |  |  |  |  |  |  | 
C[C@H]1[C@H]2Cc3ccc(O)cc3[C@]1(C)CCN2CCC(=O)N1CCc2ccccc21 [Compound 14, 1-(2,3-Dihydro-1H-indol-1-yl)-3-[(2R,6R,11R)-8-hydroxy-6,11-dimethyl-1,4,5,6-tetrahydro-2,6-methano-3-benzazocin-3(2H)-yl]propan-1-one] |  |  |  |  | Inactive |  | Inactive |  | Inactive | 0.4 ± 0.03 µM | 169 °C (dec.) | 1.6 ± 0.12 µM | Inactive | Inactive | 1150 nM | 1.4 ± 0.12 µM

— article PMC6027146, “Synthesis and Structure-Activity Relationships of (−)-cis-N-Normetazocine-Based LP1 Derivatives” (Pharmaceuticals, 2018)
